Source: patent US8815305B2, “Composition containing a plant extract and process for producing same” (BASF Beauty Care Solutions France S.A.S., priority 2003, dated 2014)

Assays:
[1] = molecular target: T1, human leucocyte elastase (HLE) (Homo sapiens, UniProt P08246); details: cited from earlier work
T1 sequence (P08246 30-267): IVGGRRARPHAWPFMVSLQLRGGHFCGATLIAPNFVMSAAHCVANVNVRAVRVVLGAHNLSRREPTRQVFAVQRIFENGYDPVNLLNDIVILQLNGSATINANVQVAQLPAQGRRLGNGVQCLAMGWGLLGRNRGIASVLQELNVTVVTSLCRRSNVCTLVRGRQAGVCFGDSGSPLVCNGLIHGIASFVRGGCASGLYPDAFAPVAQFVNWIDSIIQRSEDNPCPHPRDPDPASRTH

human keratinocytes = test: Cytophotoprotection of human keratinocytes against UV-B radiation; format: cell-based; details: for Cell number, % against control / Released LDH, % against control / Released PGE2, % against control: UVB
Excerpt: UV-B irradiation (from 280 to 320 nm) of the human skin induces a cutaneous inflammation mainly by activation of an enzyme (phospholipase A2 or PLA2), which releases arachidonic acid from the cell membranes of the cells of the skin (V. A. De Leo, D. Hanson, I. B. Weinstein and L. C. Harber—Ultraviolet radiation stimulates the release of arachidonic acid from mammalian cells in culture—Photochemistry and Photobiology (1985) volume 41N°1 pages 51-56). Then other specific enzymes (so called cyclo-oxygenases) transform arachidonic acid in active components called prostaglandines (or PG) which are secreted out of the cells. The fixation of certain prostaglandins (PGE2) on specific skin receptors is followed by redness and swelling as after a sunburn. On cultured human cells, these UV-B effects on cell membranes are associated with a release in the supernatant medium of a cytoplasmic enzyme, the Lactate Dehydrogenase or LDH (B. Bonnekoh, B. Farkas, J. Geisel and G. Mahrle—Lactate dehydrogenase release as an indicator of dithranol-induced membrane injury in cultured human keratinocytes. Dermatological research (1990) volume 282, pages 325-331).
Expressed in keywords, the experiments were carried out as follows: • Inoculation of human keratinocytes within growth medium (standard medium with fetal calf serum (FCS) • Incubation 3 days at 37° C., CO2=5% • Exchange of growth medium with balanced salt solution containing ingredient to be tested • Irradiation of keratinocytes by UV-B: 50 mJ/cm^2 (DUKE GL40E lamp) (A DUKE GL40E lamp is a certain type of marketed sunlamp well known to the skilled artisan) • Incubation 1 day at 37° C., CO2=5% • Numeration of adherent cells after trypsination (trypsination is a process based on the use of the enzyme trypsine which is a protease allowing the retrieval of cell from the support in order to seed the cells into a bigger flask and therefore to expand the cell culture) • Recovery of supernatant medium for spectrophotometric determination of the activity of LDH, and PGE2 by ELISA method

bovine trypsin = molecular target: T2, bovine trypsin (Bos taurus, UniProt P00760); details: competitive or non-competitive; cited from earlier work
T2 sequence (P00760 24-246): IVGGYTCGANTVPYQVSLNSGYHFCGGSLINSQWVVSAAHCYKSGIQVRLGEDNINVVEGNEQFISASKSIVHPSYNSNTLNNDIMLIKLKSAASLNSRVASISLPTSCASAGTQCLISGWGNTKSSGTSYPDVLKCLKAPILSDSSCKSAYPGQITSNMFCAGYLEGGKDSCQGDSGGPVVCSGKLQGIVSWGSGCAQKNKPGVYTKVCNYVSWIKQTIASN

bovine chymotrypsin = bovine chymotrypsin (Bos taurus, UniProt P00766); details: competitive or non-competitive; cited from earlier work
[2] = test system: 5-lipoxygenase products in human neutrophils; details: cited from earlier work
leucine aminopeptidase [3] = details: cited from earlier work
[4] = molecular target: porcine pancreatic elastase (Sus scrofa, UniProt P00772); details: cited from earlier work
leucine aminopeptidase [5] = details: cited from earlier work; remark: listed apart in the source
[6] = molecular target: T1, human leucocyte elastase (HLE); details: read-out: HLE inhibitory activity IC(50); cited from earlier work
[7] = test system: Croton oil induced oedema of the mouse ear; details: cited from earlier work
elastase from pancreas = elastase from pancreas (Sus scrofa, UniProt P00772); test: Elastase inhibition, Elastin-Congo red as substrate; format: biochemical; details: 30 minutes at room temperature, Elastin-Congo red
Method: This test was carried out with an elastase from pancreas on Elastin labelled with Congo red. The time of incubation was 30 minutes at room temperature and the optical density of released Congo red was recorded after centrifugation at a wavelength of 520 nm. al-antitrypsine was used as positive reference.
The following table summarizes the results expressed as EC 50 in % w/v. (EC 50 in % w/v is the concentration in % w/v which reduces the enzymatic activity by 50%.)

human fibroblasts = test: Cytophotoprotection of human fibroblasts against UV-A radiation; format: cell-based
Method: The cytoprotection against UV-A radiation was evaluated by a test on human fibroblasts because UV-A radiation penetrates through the epidermis until the derma where it induces oxidative stress (DALLE CARBONARE M, PATHAK M A; Skin photosensitising agents and the role of reactive oxygen species in photoaging; JOURNAL OF PHOTOCHEMISTRY & PHOTOBIOLOGY, 1992, 14, 1-2, pages 105-124. This oxidative stress was evaluated in vitro by measuring of the level of released MDA (malonaldehyde) and of intracellular GSH (reduced glutathione) (Morliere P., Moisan A., Santus R., Huppe G., Mazière J. C., Dubertret L.: UV-A induced lipid peroxydation in cultured human fibroblasts. Biochim. Biophys. Acta, 1084, 3, pages 261-269 (1991)).
Expressed in keywords, the experiments were carried out as follows: • Inoculation of human fibroblasts within a growth medium (standard medium with foetal calf serum (FCS) • Incubation 3 days at 37° C., CO2=5% • Exchange of growth medium with balanced salt solution • Irradiation of fibroblasts by UV-A: 20 J/cm^2 (black light TFWN lamp) (A TFWN lamp is a certain type of marketed sunlamp well known to the skilled artisan) • Exchange of growth medium with standard medium without FCS but containing ingredient to be tested • Incubation 3 days at 37° C., CO2=5% • Recovery of supernatant medium for spectrophotometric determination of the malonaldialdehde (or MDA) rate • Cells number determined by evaluation of the levels of cellular proteins (Bradford's method) and the rate of cellular GSH was evaluated according to the method of Hissin

Chain of porcine pancreatic elastase (P00772 27-266): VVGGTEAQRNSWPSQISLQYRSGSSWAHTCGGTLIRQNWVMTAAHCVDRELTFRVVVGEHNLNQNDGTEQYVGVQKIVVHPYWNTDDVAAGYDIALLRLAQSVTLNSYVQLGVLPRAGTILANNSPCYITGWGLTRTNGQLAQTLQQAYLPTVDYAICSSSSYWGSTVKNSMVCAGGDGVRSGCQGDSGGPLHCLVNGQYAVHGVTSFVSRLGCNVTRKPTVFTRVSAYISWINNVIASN
Chain of elastase from pancreas (P00772 27-266): as above

Compound: CC1(C)[C@@H](O)CC[C@]2(C)[C@H]3C(=O)C=C4[C@@H]5C[C@@](C)(C(=O)O)CC[C@]5(C)CC[C@@]4(C)[C@]3(C)CC[C@@H]12 [18 beta-glycyrrhetic acid]
- interaction with the ursolic acid binding site of HLE [1]: can also interact with this binding site

Compound: CC(=O)Oc1ccccc1C(=O)O [Aspirin]
- UV toxic effects on the number of viable cells (cell number and released LDH) (human keratinocytes): distinctly reduced
- release of inflammatory mediators such as PGE2 (human keratinocytes): distinctly reduced
- Cell number, % against control (human keratinocytes; dose 0.0003%): 67%
- Released LDH, % against control (human keratinocytes; dose 0.0003%): 13%
- Released PGE2, % against control (human keratinocytes; dose 0.0003%): 0%

Compound: COc1ccc2c(c1)c(CC(=O)O)c(C)n2C(=O)c1ccc(Cl)cc1 [Indomethacine, Indomethacin]
- UV toxic effects on the number of viable cells (cell number and released LDH) (human keratinocytes): moderately reduced
- release of inflammatory mediators such as PGE2 (human keratinocytes): drastically reduced
- Cell number, % against control (human keratinocytes): 34%
- Released LDH, % against control (human keratinocytes): 77%
- Released PGE2, % against control (human keratinocytes): 0%

Compound: C=C(C)[C@@H]1CC[C@]2(C)CC[C@]3(C)C(CC[C@@H]4[C@@]5(C)CC[C@H](OC(=O)CCCCCCC/C=C/C/C=C/CCCCC)C(C)(C)[C@@H]5CC[C@]43C)[C@@H]12 (stereo partly drawn) [Lupeol linoleate]
- Ki (bovine trypsin): 7 µM

Compound: CCCCCCCCCCCCCCCC(=O)O[C@H]1CC[C@]2(C)[C@H]3CC=C4[C@@H]5[C@@H](C)[C@H](C)CC[C@@]5(C)CC[C@@]4(C)[C@]3(C)CC[C@H]2C1(C)C [alpha-Amyrin palmitate]
- Ki (bovine chymotrypsin): 6 µM

Compound: CC(=O)O[C@H]1CC[C@]2(C)[C@H]3CC=C4[C@@H]5[C@@H](C)[C@H](C)CC[C@]5(C)CC[C@@]4(C)[C@]3(C)CC[C@H]2C1(C)C [alpha-amyrin acetate]
- 5-HETE synthesis [2]: reduced
- LTB4 synthesis [2]: without effect

Compound: CCCCCC=CCC=CCCCCCCCC(=O)OC1CCC2(C)C(CCC3(C)C2CC=C2C4C(C)C(C)CCC4(C)CCC23C)C1(C)C (stereo not drawn) [alpha-amyrin linoleate]
- Ki (bovine trypsin): 16 µM
- Ki (bovine chymotrypsin): 28 µM

Compound: C[C@H]1[C@H](C)CC[C@]2(C)CC[C@]3(C)C(=CC[C@@H]4[C@@]5(C)CC[C@H](O)C(C)(C)[C@@H]5CC[C@]43C)[C@H]12 [alpha-amyrin]
- inhibition of Helicoverpa punctigera leucine aminopeptidase (leucine aminopeptidase [3]): ineffective or very weak
- inhibition of porcine pancreatic elastase [4]: ineffective or very weak
- Ki (bovine trypsin): 29 µM
- inhibition of Lucilia cuprina leucine aminopeptidase (leucine aminopeptidase [5]): ineffective or very weak
- Ki (bovine chymotrypsin): 18 µM

Compound: CC(=O)O[C@H]1CC[C@]2(C)[C@H]3CC=C4[C@@H]5CC(C)(C)CC[C@]5(C)CC[C@@]4(C)[C@]3(C)CC[C@H]2C1(C)C [beta-amyrin acetate]
- 5-HETE synthesis [2]: reduced
- LTB4 synthesis [2]: without effect

Compound: CC1(C)CC[C@]2(C)CC[C@]3(C)C(=CC[C@@H]4[C@@]5(C)CC[C@H](O)C(C)(C)[C@@H]5CC[C@]43C)[C@@H]2C1 [beta-amyrin]
- 5-HETE synthesis [2]: reduced
- LTB4 synthesis [2]: without effect

Compound: C[C@H]1C(=O)CC[C@@H]2[C@]1(C)CC[C@H]1[C@@]2(C)CC[C@@]2(C)[C@@H]3CC(C)(C)CC[C@]3(CO)CC[C@]12C [canophyllol]
- IC50 [6]: 2.5 µM

Compound: CCCCCCCCCCCCCCCC(=O)OC1CCC2(C)C(CCC3(C)C2CCC2C4C(C)C(C)=CCC4(C)C(O)CC23C)C1(C)C (stereo not drawn) [faradiol-3-palmitic acid ester]
- anti-oedematous activity [7]: nearly the same dose dependent anti-oedematous activity

Compound: CC1=CC[C@@]2(C)[C@H]([C@@H]1C)[C@H]1CC[C@@H]3[C@@]4(C)CC[C@H](O)C(C)(C)[C@@H]4CC[C@@]3(C)[C@]1(C)C[C@@H]2O [faradiol]
- anti-oedematous activity [7]: more active than its esters and than psi-taraxasterol
- anti-oedematous effect compared with indomethacin ([7]; equimolar dose): same effect

Compound: CC1(C)CC[C@]2(C(=O)O)CC[C@]3(C)C(=CC[C@@H]4[C@@]5(C)CC[C@H](O)[C@@](C)(CO)[C@@H]5CC[C@]43C)[C@@H]2C1 [hederagenin]
- interaction with the ursolic acid binding site of HLE [1]: can also interact with this binding site

Compound: C=C(C)[C@@H]1CC[C@]2(C)CC[C@]3(C)[C@H](CC[C@@H]4[C@@]5(C)CC[C@H](OC(=O)CCCCCCCCCCCCCCC)C(C)(C)[C@@H]5CC[C@]43C)[C@@H]12 [lupeol palmitate]
- Ki (bovine trypsin): 10 µM

Compound: C=C(C)[C@@H]1CC[C@]2(C)CC[C@]3(C)[C@H](CC[C@@H]4[C@@]5(C)CC[C@H](O)C(C)(C)[C@@H]5CC[C@]43C)[C@@H]12 [lupeol]
- inhibition of Helicoverpa punctigera leucine aminopeptidase (leucine aminopeptidase [3]): ineffective or very weak
- inhibition of porcine pancreatic elastase [4]: ineffective or very weak
- Ki (bovine trypsin): 22 µM
- inhibition of Lucilia cuprina leucine aminopeptidase (leucine aminopeptidase [5]): ineffective or very weak
- Ki (bovine chymotrypsin): 8 µM
- IC50 [6]: 1.9 µM

Compound: CC1=CCC2(C)CCC3(C)C(CCC4C5(C)CCC(O)C(C)(C)C5CCC43C)C2C1C (stereo not drawn) [psi-taraxasterol]
- anti-oedematous activity [7]: slightly lower effect

Compound: A1 anti trypsine: positive reference of the elastase test
- Elastase EC 50 (concentration which reduces the enzymatic activity by 50%) (elastase from pancreas): 0.03% w/v

Compound: Tocopherol
- protection of human fibroblasts from toxic UVA effects (human fibroblasts): strongly protected
- GSH/protein, % against control (human fibroblasts; UV-A 20 J/cm^2, dose 0.0003%): 89%
- Released MDA, % against control (human fibroblasts; UV-A 20 J/cm^2, dose 0.0003%): 23%
- cell's protein, % against control (human fibroblasts; UV-A 20 J/cm^2, dose 0.0003%): 106%

Compound: faradiol-3-myristic acid ester
- anti-oedematous activity [7]: nearly the same dose dependent anti-oedematous activity
